The target in assay [1] is T1, human calcitonin receptor (Homo sapiens, UniProt P30988).
T1 construct: expressed in transfected cells; host or cells: BHK tk'ts 13
T1 sequence (P30988 25-474): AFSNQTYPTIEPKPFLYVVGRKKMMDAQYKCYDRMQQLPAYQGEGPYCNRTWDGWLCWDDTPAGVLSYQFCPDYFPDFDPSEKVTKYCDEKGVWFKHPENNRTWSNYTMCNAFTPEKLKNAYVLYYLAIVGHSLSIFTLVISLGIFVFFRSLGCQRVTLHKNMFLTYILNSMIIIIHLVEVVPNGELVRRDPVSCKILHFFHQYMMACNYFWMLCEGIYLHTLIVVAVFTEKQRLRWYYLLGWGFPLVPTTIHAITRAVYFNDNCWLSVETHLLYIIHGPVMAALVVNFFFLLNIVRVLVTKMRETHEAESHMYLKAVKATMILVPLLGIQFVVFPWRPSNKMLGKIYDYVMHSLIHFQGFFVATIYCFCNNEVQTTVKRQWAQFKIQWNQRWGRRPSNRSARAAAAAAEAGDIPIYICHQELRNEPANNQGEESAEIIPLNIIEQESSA
Put plainly: Assay (VII) binding to the human calcitonin receptor (membrane, SPA). The note with it: membranes, 125I-Calcitonin; read-out: hCT-R binding IC50. The method, then: Assay (VII)—Determination of Binding to the Human Calcitonin Receptor (Membrane)
The binding assay was performed using scintillation proximity assay (SPA) beads (RPNQ0001) from PerkinElmer® and cell membranes prepared from a BHK tk'ts 13 cell line was stably transfected with the human calcitonin receptor and a CRE-responsive luciferase reporter gene. Membranes were prepared in the following way; the cells were rinsed with PBS and incubated with Versene for approximately 5 min before harvesting. The cells were flushed with PBS and the cell-suspension was centrifuged for 5 min at 1000 rpm. Cells were homogenized in a buffer containing 20 mM Na-HEPES and 10 mM EDTA (pH 7.4) and centrifuged at 20.000 rpm for 15 min. The resulting pellet was resuspended, homogenized and centrifuged (20.000 rpm, 15 min) in a buffer containing 20 mM Na-HEPES and 0.1 mM EDTA (pH 7.4, buffer 2). The resulting pellet was resuspended in buffer 2 and protein concentration was tested (BCA protein Assay, Pierce). The homogenate was kept cold during the whole procedure. The membranes were kept at −80° C. until use. Assay was performed in a 384 well Optiplate (PerkinElmer®) in a total volume of 40 ul. Membranes were mixed with SPA beads. Final concentration of membranes 35 ng/μL final and Final concentration of SPA beads was 0.05 mg/well. Test-compounds were dissolved in DMSO and further diluted in assay buffer (50 mM Hepes, pH 7.4, 1 mM CaCl2, 5 mM MgCl2, 0.1% OA and 0.02% Tween20). Radioligand ^125I-Calcitonin was dissolved in assay buffer and added to the Optiplate at a final concentration of 75 pM/well (approx. 30.000 cpm/10 ul). The final mixture was incubated for 120 min with shaking at 400 rpm at 25° C. prior to centrifugation (1500 rpm, 10 min). Samples were analyzed on TopCounter™ (Packard). The IC50 was calculated using (one site binding competition analysis) GraphPad Prism5 as a measure of receptor affinity.

Assay [2] deals with T2, human amylin 3(a) receptor (human calcitonin receptor + RAMP-3), BHK570 cells (Homo sapiens, UniProt O60896+P30988).
T2 construct: host or cells: BHK570
Put plainly: Assay (II)b functional CRE-luciferase assay without albumin, human amylin receptor. The class given is cell-based. The settings on record: Tested without HSA; read-out: hAmylin-R funct. EC50. Put shortly:
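BHK570 cells stably expressing human calcitonin receptor with CRE-luciferase reporter, plus RAMP-3 for the amylin 3(a) line. Cells stimulated 3 hours at 37 °C in albumin-free assay medium (0.1% ovalbumin, 10 mM Hepes pH 7.4); cAMP-driven luciferase read by luminescence.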

These results are taken from patent US9593149B2, “Amylin and calcitonin receptor agonist” (Novo Nordisk A/S, priority 2014, dated 2017).

pEC50, pIC50: −log10 of the molar value. Numbered stars: 1 amine (or outer) side, 2 acyl side, 3 side chain; on linkers, the order of the positions; unused ones are H or OH. Side chains are listed from the residue outwards. Peptide text beside a SMILES is read from it. * marks the point of attachment. C20 diacid = O=C(O)CCCCCCCCCCCCCCCCCCC(=O)*; C18 diacid = O=C(O)CCCCCCCCCCCCCCCCC(=O)*; γGlu = O=C(O)[C@H](CCC(=O)[*:2])N[*:1]

T2 sequence (O60896 24-148, one chain of several): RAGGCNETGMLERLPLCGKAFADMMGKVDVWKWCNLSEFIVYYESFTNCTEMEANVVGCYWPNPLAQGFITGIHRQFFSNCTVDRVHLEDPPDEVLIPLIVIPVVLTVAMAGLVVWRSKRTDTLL

For the compound `CC(C)C[C@H](NC(=O)[C@H](CCCNC(=N)N)NC(=O)CNC(=O)[C@H](CC(C)C)NC(=O)[C@@H](NC(=O)[C@H](C)NC(=O)[C@@H](NC(=O)[C@H](CO)NC(=O)[C@H](CC(C)C)NC(=O)[C@H](CCC(=O)O)NC(=O)[C@H](CO)NC(=O)[C@H](C)NC(=O)CC[C@H](NC(=O)CCCCCCCCCCCCCCCCCCC(=O)O)C(=O)O)[C@@H](C)O)C(C)C)C(=O)N[C@@H](CO)C(=O)N[C@@H](CCC(N)=O)C(=O)N[C@@H](CCC(=O)O)C(=O)N[C@@H](CC(C)C)C(=O)N[C@@H](Cc1c[nH]cn1)C(=O)N[C@@H](CCC(=O)O)C(=O)N[C@@H](CC(C)C)C(=O)N[C@@H](CCC(N)=O)C(=O)N[C@H](C(=O)N[C@@H](Cc1ccc(O)cc1)C(=O)N1CCC[C@H]1C(=O)N[C@@H](CCCNC(=N)N)C(=O)N[C@H](C(=O)N[C@@H](CCC(=O)O)C(=O)N[C@H](C(=O)NCC(=O)N[C@@H](CO)C(=O)NCC(=O)N[C@H](C(=O)N[C@@H](Cc1ccc(O)cc1)C(N)=O)[C@@H](C)O)[C@@H](C)O)[C@@H](C)O)[C@@H](C)O` [compound 114, [N-terminal(C20 diacid-gGlu), des1, 9V, 15Q, 21Q, 23Y, 30S, 31G, 32T, 33Y]mimylin], the pIC50 in assay [1] was 10.07.
Regarding `CC(C)C[C@H](NC(=O)[C@H](C)NC(=O)[C@H](C)NC(=O)[C@@H](NC(=O)[C@H](CO)NC(=O)[C@H](CC(C)C)NC(=O)[C@H](CCC(=O)O)NC(=O)[C@H](CO)NC(=O)[C@H](C)NC(=O)[C@H](C)NC(=O)CC[C@H](NC(=O)CCCCCCCCCCCCCCCCCCC(=O)O)C(=O)O)[C@@H](C)O)C(=O)NCC(=O)N[C@@H](CCCNC(=N)N)C(=O)N[C@@H](CC(C)C)C(=O)N[C@@H](CO)C(=O)N[C@@H](C)C(=O)N[C@@H](CCC(=O)O)C(=O)N[C@@H](CC(C)C)C(=O)N[C@@H](Cc1c[nH]cn1)C(=O)N[C@@H](CCC(=O)O)C(=O)N[C@@H](CC(C)C)C(=O)N[C@@H](C)C(=O)N[C@H](C(=O)N[C@@H](Cc1ccc(O)cc1)C(=O)N1CCC[C@H]1C(=O)N[C@@H](CCCNC(=N)N)C(=O)N[C@H](C(=O)N[C@@H](CCC(=O)O)C(=O)N[C@H](C(=O)NCC(=O)N[C@@H](CO)C(=O)NCC(=O)N[C@@H](CO)C(=O)N1CCC[C@H]1C(N)=O)[C@@H](C)O)[C@@H](C)O)[C@@H](C)O` [compound 57, [N-terminal(C20 diacid-gGlu), 1A, 23Y, 30S, 31G]mimylin] ({C20 diacid-γGlu}-AASELSTAALGRLSAELHELATYPRTETGSGSP-NH2), the pEC50 in assay [2] is 10.70. In assay [1], the pIC50 was 9.97.
Take `CC(=O)N[C@@H](C)C(=O)N[C@@H](CO)C(=O)N[C@@H](CCCCNC(=O)CC[C@H](NC(=O)CCCCCCCCCCCCCCCCCCC(=O)O)C(=O)O)C(=O)N[C@@H](CC(C)C)C(=O)N[C@@H](CO)C(=O)N[C@H](C(=O)N[C@@H](C)C(=O)N[C@@H](C)C(=O)N[C@@H](CC(C)C)C(=O)NCC(=O)N[C@@H](CCCNC(=N)N)C(=O)N[C@@H](CC(C)C)C(=O)N[C@@H](CO)C(=O)N[C@@H](C)C(=O)N[C@@H](CCC(=O)O)C(=O)N[C@@H](CC(C)C)C(=O)N[C@@H](Cc1c[nH]cn1)C(=O)N[C@@H](CCC(=O)O)C(=O)N[C@@H](CC(C)C)C(=O)N[C@@H](C)C(=O)N[C@H](C(=O)N[C@@H](CC(C)C)C(=O)N1CCC[C@H]1C(=O)N[C@@H](CCCNC(=N)N)C(=O)N[C@H](C(=O)N[C@@H](CCC(=O)O)C(=O)N[C@H](C(=O)NCC(=O)N[C@@H](CO)C(=O)NCC(=O)N[C@@H](CO)C(=O)N1CCC[C@H]1C(N)=O)[C@@H](C)O)[C@@H](C)O)[C@@H](C)O)[C@@H](C)O` [compound 68, [N-terminal(acetyl), des1, 4K(C20 diacid-gGlu), 30S, 31G]mimylin] (Ac-ASK([γGlu-C20 diacid])LSTAALGRLSAELHELATLPRTETGSGSP-NH2): in assay [2], the pEC50 is 10.44. Also, the pIC50 in assay [1] is 11.00.
Turning to `CC(C)C[C@H](NC(=O)[C@H](CCC(=O)O)NC(=O)[C@H](C)NC(=O)[C@@H](NC(=O)[C@H](CC(C)C)NC(=O)[C@H](CCCNC(=N)N)NC(=O)CNC(=O)[C@H](CC(C)C)NC(=O)[C@@H](NC(=O)[C@H](C)NC(=O)[C@@H](NC(=O)[C@@H](NC(=O)[C@H](CC(C)C)NC(=O)[C@H](CCC(=O)O)NC(=O)[C@H](CO)NC(=O)[C@H](C)NC(=O)CC[C@H](NC(=O)CCCCCCCCCCCCCCCCC(=O)O)C(=O)O)[C@@H](C)O)[C@@H](C)O)C(C)C)[C@@H](C)O)C(=O)N[C@@H](Cc1c[nH]cn1)C(=O)N[C@@H](CCC(=O)O)C(=O)N[C@@H](CC(C)C)C(=O)N[C@@H](CCC(=O)O)C(=O)N[C@H](C(=O)N[C@@H](CC(C)C)C(=O)N1CCC[C@H]1C(=O)N[C@@H](CCCNC(=N)N)C(=O)N[C@H](C(=O)N[C@@H](CCC(=O)O)C(=O)N[C@H](C(=O)NCC(=O)N[C@H](C(=O)NCC(=O)N[C@H](C(=O)N1CCC[C@H]1C(N)=O)[C@@H](C)O)[C@@H](C)O)[C@@H](C)O)[C@@H](C)O)[C@@H](C)O` [compound 105, [N-terminal(C18 diacid-gGlu), des1, 6T, 9V, 14T, 21E, 30T, 31G, 32T]mimylin] ({C18 diacid-γGlu}-ASELTTAVLGRLTAELHELETLPRTETGTGTP-NH2), the pIC50 in assay [1] was 9.65.
